Measurements published in ChEMBL document CHEMBL5390306, “Development of Conformationally Restricted Negamycin Derivatives for Potent Readthrough Activity” (ACS Med Chem Lett, 2023).
The source made the active and inactive calls. The calls are words filed in the database; no cut-off is given here.

Columns and labels:
Assay type in all cases: functional, cell-based
[1] = tested on: Premature termination codon; assay: Readthrough activity against UAG type PTC 5'-TTGAAAGAGCAATAAAATGGCTTCAAC-3' from DMD mdx mouse overexpressed in COS7 cells assessed as ratio of luciferase activity to beta-galactosidase activity at 200 uM incubated for 48 hrs by Dual luciferase reporter assay
[2] = tested on: Premature termination codon; assay: Readthrough activity against UGA type PTC 5'-TTGAAAGAGCAATAAAATGGCTTCAAC-3' from DMD mdx mouse overexpressed in COS7 cells assessed as ratio of luciferase activity to beta-galactosidase activity at 200 uM incubated for 48 hrs by Dual luciferase reporter assay
[3] = tested on: Premature termination codon; assay: Readthrough activity against UAA type PTC 5'-TTGAAAGAGCAATAAAATGGCTTCAAC-3' from DMD mdx mouse overexpressed in COS7 cells assessed as ratio of luciferase activity to beta-galactosidase activity at 200 uM incubated for 48 hrs by Dual luciferase reporter assay
[4] = tested on: Premature termination codon; assay: Readthrough activity against UGA type PTC 5'-TTGAAAGAGCAATAAAATGGCTTCAAC-3' from DMD mdx mouse overexpressed in COS7 cells assessed as ratio of luciferase activity to beta-galactosidase activity incubated for 48 hrs by Dual luciferase reporter assay; details: dose 6.25-200 µM
[5] = tested on: Premature termination codon; assay: Potency index, ratio of 2,6-diaminopurine to test compound for readthrough activity against UGA type PTC 5'-TTGAAAGAGCAATAAAATGGCTTCAAC-3' from DMD mdx mouse overexpressed in COS7 cells at 200 uM incubated for 48 hrs by Dual luciferase reporter assay
[6] = tested on: Premature termination codon; assay: Readthrough activity against UGA type PTC 5'-TTGAAAGAGCAATAAAATGGCTTCAAC-3' from DMD mdx mouse overexpressed in COS7 cells assessed as readthrough efficiency at 200 uM incubated for 48 hrs by Dual luciferase reporter assay relative to control
[7] = tested on: Premature termination codon; assay: Potency index, ratio of G418 to test compound for readthrough activity against UGA type PTC 5'-TTGAAAGAGCAATAAAATGGCTTCAAC-3' from DMD mdx mouse overexpressed in COS7 cells at 200 uM incubated for 48 hrs by Dual luciferase reporter assay
[8] = tested on: Premature termination codon; assay: Readthrough activity against UGA type PTC 5'-TTGAAAGAGCAATAAAATGGCTTCAAC-3' from DMD mdx mouse overexpressed in COS7 cells assessed as ratio of luciferase activity to beta-galactosidase activity at 6.25 to 200 uM incubated for 48 hrs by Dual luciferase reporter assay; details: dose 6.25-200 µM

Structure (SMILES) | Ratio [1] | Ratio [2] | Ratio [3] | also measured
CN(CC(=O)O)NC(=O)C[C@@H](N)CCCN | 1.95 | 2.69 | 1.22 | 
Nc1nc(N)c2nc[nH]c2n1 |  |  |  | Activity [4]: Dose-Dependent Effect
CC(C)C[C@@H](N)C(=O)N[C@H](CC(=O)NN(C)CC(=O)O)[C@H]1C[C@H]1CN |  | 1.01 |  | 
CCCCCCCCC[C@H](N)C(=O)N[C@@H](CCCN)CC(=O)NN(C)CC(=O)O |  | 19.5 |  | 
CCCCCCC(=O)NC[C@H](N)C(=O)N[C@H](CC(=O)NN(C)CC(=O)O)[C@H]1C[C@H]1CN |  | 1.38 |  | 
CCCCCCCCC[C@H](N)C(=O)N[C@H](CC(=O)NN(C)CC(=O)O)[C@H]1C[C@H]1CN | 11.4 | 23 | 1.81 | Activity [4]: Dose-Dependent Effect; fold change (FC) [5]: 2; Activity [6]: 2.88%; fold change (FC) [7]: 2
O=C(O)c1cccc(-c2noc(-c3ccccc3F)n2)c1 |  |  |  | Activity [8]: Active
CC(C)C[C@H](N)C(=O)N[C@H](CC(=O)NN(C)CC(=O)O)[C@H]1C[C@H]1CN |  | 3.08 |  | 
COCCCCCCC[C@H](N)C(=O)N[C@H](CC(=O)NN(C)CC(=O)O)[C@H]1C[C@H]1CN |  | 1.94 |  | 
CCCC(=O)NCCCC[C@H](N)C(=O)N[C@H](CC(=O)NN(C)CC(=O)O)[C@H]1C[C@H]1CN |  | 2.05 |  | 
CCCCCC/C=C/C[C@H](N)C(=O)N[C@H](CC(=O)NN(C)CC(=O)O)[C@H]1C[C@H]1CN |  | 16.9 |  | 
CN[C@@H]1[C@@H](O)[C@@H](O[C@@H]2[C@@H](O)[C@H](O[C@H]3O[C@H]([C@@H](C)O)[C@@H](O)[C@H](O)[C@H]3N)[C@@H](N)C[C@H]2N)OC[C@]1(C)O | 4.68 | 6.01 | 4.5 | Activity [4]: Dose-Dependent Effect; Activity [6]: 1.71%
CN(CC(=O)O)NC(=O)C[C@@H](N)[C@H]1C[C@H]1CN | 6.24 | 8.36 | 1.3 | Activity [4]: Dose-Dependent Effect
CN(CC(=O)O)NC(=O)C[C@@H](NC(=O)[C@@H](N)CCCCCCCO)[C@H]1C[C@H]1CN |  | 3.25 |  | 
CN(CC(=O)O)NC(=O)C[C@H](N)C[C@@H](O)CN | 0.91 | 1.55 | 1.31 | 
